Test results published in ChEMBL document CHEMBL1201862, “PubChem BioAssay data set” (2004).
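Step 1: Grow cells in 96-well plates. Step 2: Expose to compound for 48 hours at 5 concentrations. Step 3: Interpolate endpoints linearly; if unreached, use highest concentration. GI50 is the concentration that inhibits growth by half.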 The source made the active and inactive calls. Cut-off read from the data, not from the text of the source: active = GI50 up to about 1.1 µM and inactive = higher.

What was measured:
Test in all cases: growth of human tumour cells (NCI), 48 h
NCI/ADR-RES = test system: NCI/ADR-RES
HCT-116 = test system: HCT-116
OVCAR-4 = test system: OVCAR-4
RXF 393 = test system: RXF 393
NCI-H226 = test system: NCI-H226
SK-MEL-5 = test system: SK-MEL-5
MCF7 = test system: MCF7
OVCAR-5 = test system: OVCAR-5
NCI-H460 = test system: NCI-H460
HT-29 = test system: HT-29
CCRF-CEM = test system: CCRF-CEM
HOP-92 = test system: HOP-92
CAKI-1 = test system: CAKI-1
K562 = test system: K562
OVCAR-8 = test system: OVCAR-8
MOLT-4 = test system: MOLT-4
U-251 = test system: U-251
HL-60 = test system: HL-60
SN12C = test system: SN12C
TK-10 = test system: TK-10

Measured: GI50

COc1ccc(Cc2nn(C3OC(COC(C)=O)C(OC(C)=O)C(OC(C)=O)C3OC(C)=O)c(=S)n(-c3ccc(OC)cc3)c2=O)cc1 (configuration not stated)
inactive: NCI/ADR-RES > 100 µM | HCT-116 > 100 µM | OVCAR-4 > 100 µM | RXF 393 > 100 µM | NCI-H226 > 100 µM | SK-MEL-5 > 100 µM | MCF7 > 100 µM | OVCAR-5 > 100 µM | NCI-H460 > 100 µM | HT-29 > 100 µM | CCRF-CEM > 100 µM | HOP-92 > 87.5 µM | CAKI-1 > 100 µM | K562 > 100 µM | OVCAR-8 > 100 µM | MOLT-4 > 100 µM | U-251 > 100 µM | HL-60 > 77.8 µM | SN12C > 100 µM

CCCN(CCC)c1cc2c(cc1F)c(=O)c(C(=O)O)cn2-c1ccc(N2CCN(C)CC2)cn1
inactive: NCI/ADR-RES 17.6 µM | HCT-116 15.3 µM | OVCAR-4 19.2 µM | RXF 393 18.7 µM | NCI-H226 16.7 µM | MCF7 14.9 µM | OVCAR-5 18.8 µM | NCI-H460 17.5 µM | HT-29 14.7 µM | CCRF-CEM 17.6 µM | TK-10 10.4 µM | HOP-92 13 µM | CAKI-1 15.3 µM | K562 17.8 µM | OVCAR-8 14.3 µM | MOLT-4 16.2 µM | U-251 25.5 µM | HL-60 6.18 µM | SN12C 22.5 µM

CN1CCC(C(O)(c2ccccc2)c2ccc(Br)cc2)CC1 (configuration not stated)
inactive: NCI/ADR-RES 34.9 µM | HCT-116 18.8 µM | OVCAR-4 22.7 µM | RXF 393 18.3 µM | NCI-H226 21.8 µM | SK-MEL-5 14.8 µM | MCF7 22.6 µM | OVCAR-5 21.2 µM | NCI-H460 23.4 µM | HT-29 20 µM | CCRF-CEM 30.5 µM | TK-10 25.9 µM | HOP-92 8.45 µM | CAKI-1 14 µM | K562 16.7 µM | OVCAR-8 50.2 µM | MOLT-4 23.1 µM | U-251 17.7 µM | HL-60 20.4 µM | SN12C 16.9 µM

CC(C)[C@](O)(C(=O)OCC1=CCN2CC[C@@H](O)[C@@H]12)[C@H](C)O
inactive: NCI/ADR-RES > 375 µM | HCT-116 > 375 µM | OVCAR-4 > 375 µM | RXF 393 > 375 µM | NCI-H226 > 375 µM | SK-MEL-5 > 80.7 µM | MCF7 > 375 µM | OVCAR-5 > 278 µM | NCI-H460 > 367 µM | HT-29 > 375 µM | CCRF-CEM > 375 µM | HOP-92 > 375 µM | CAKI-1 > 375 µM | K562 > 375 µM | OVCAR-8 > 375 µM | MOLT-4 > 375 µM | U-251 > 375 µM | HL-60 > 375 µM | SN12C > 375 µM
